Usually pIC50 stands for the IC50 on a negative log10 scale, so that one unit is a factor of ten.

pIC50: −log10 of the molar value.

The source of these data is BindingDB's records for doi:10.1016/j.bmcl.2009.11.072 (Roche Palo Alto, 2010).

A short description of the assay: Antagonist activity at human recombinant CCR5 by cell-cell fusion assay.
As for `Cc1ncnc(C)c1C(=O)N1C[C@H]2CN(CCC3(c4ccccc4)CN(C(=O)C(C)(C)C)C3)C[C@H]2C1` [1-(3-(2-((3aR,6aS)-5-(4,6-dimethylpyrimidine-5-carbonyl)hexahydropyrrolo[3,4-c]pyrrol-2(1H)-yl)ethyl)-3-phenylazetidin-1-yl)-2,2-dimethylpropan-1-one], the pIC50 is 6.73.

For `Cc1ncnc(C)c1C(=O)N1C[C@H]2CN(CCC3(c4ccccc4)CN(C(=O)C(C)(C)CO)C3)C[C@H]2C1` [1-(3-(2-((3aR,6aS)-5-(4,6-dimethylpyrimidine-5-carbonyl)hexahydropyrrolo[3,4-c]pyrrol-2(1H)-yl)ethyl)-3-phenylazetidin-1-yl)-3-hydroxy-2,2-dimethylpropan-1-one], the pIC50 is 6.51. As for `Cc1ncnc(C)c1C(=O)N1C[C@H]2CN(CCC3(c4ccccc4)CCN(C(=O)C(C)(C)C)C3)C[C@H]2C1` (stereo partly drawn) [1-(3-(2-((3aR,6aS)-5-(4,6-dimethylpyrimidine-5-carbonyl)hexahydropyrrolo[3,4-c]pyrrol-2(1H)-yl)ethyl)-3-phenylpyrrolidin-1-yl)-2,2-dimethylpropan-1-one], the figure is 5.71; as for `Cc1ncnc(C)c1C(=O)N1C[C@H]2CN(CCC3(c4cccc(F)c4)CCN(C(=O)C(C)(C)C)CC3)C[C@H]2C1` [1-(4-(2-((3aR,6aS)-5-(4,6-dimethylpyrimidine-5-carbonyl)hexahydropyrrolo[3,4-c]pyrrol-2(1H)-yl)ethyl)-4-(3-fluorophenyl)piperidin-1-yl)-2,2-dimethylpropan-1-one], 6.89; as for `Cc1ncnc(C)c1C(=O)N1C[C@H]2CN(CCC3(c4cccc(F)c4)CCN(C(=O)C(C)C)CC3)C[C@H]2C1` [1-(4-(2-((3aR,6aS)-5-(4,6-dimethylpyrimidine-5-carbonyl)hexahydropyrrolo[3,4-c]pyrrol-2(1H)-yl)ethyl)-4-(3-fluorophenyl)piperidin-1-yl)-2-methylpropan-1-one], 6.80. In the case of `Cc1ncnc(C)c1C(=O)N1C[C@H]2CN(CCC3(c4cccc(F)c4)CCN(C(=O)CC(C)(C)C)CC3)C[C@H]2C1` [1-(4-(2-((3aR,6aS)-5-(4,6-dimethylpyrimidine-5-carbonyl)hexahydropyrrolo[3,4-c]pyrrol-2(1H)-yl)ethyl)-4-(3-fluorophenyl)piperidin-1-yl)-3,3-dimethylbutan-1-one] it was 6.47; in that of `Cc1ncnc(C)c1C(=O)N1C[C@H]2CN(CCC3(c4cccc(F)c4)CCN(C(=O)C(C)(C)CO)CC3)C[C@H]2C1` [1-(4-(2-((3aR,6aS)-5-(4,6-dimethylpyrimidine-5-carbonyl)hexahydropyrrolo[3,4-c]pyrrol-2(1H)-yl)ethyl)-4-(3-fluorophenyl)piperidin-1-yl)-3-hydroxy-2,2-dimethylpropan-1-one], 6.00; in that of `CC(=O)N1CCC(CCN2C[C@@H]3CN(C(=O)c4c(C)ncnc4C)C[C@@H]3C2)(c2cccc(F)c2)CC1` [1-(4-(2-((3aR,6aS)-5-(4,6-dimethylpyrimidine-5-carbonyl)hexahydropyrrolo[3,4-c]pyrrol-2(1H)-yl)ethyl)-4-(3-fluorophenyl)piperidin-1-yl)ethanone], less than 5.60.

As for `Cc1ncnc(C)c1C(=O)N1C[C@H]2CN(CCC3(c4ccccc4)CN(C(=O)CC4CCCC4)C3)C[C@H]2C1` [2-cyclopentyl-1-(3-(2-((3aR,6aS)-5-(4,6-dimethylpyrimidine-5-carbonyl)hexahydropyrrolo[3,4-c]pyrrol-2(1H)-yl)ethyl)-3-phenylazetidin-1-yl)ethanone], the negative logarithm of the IC50 (pIC50) was 6.87. For the compound `Cc1cc(C#N)nc(C)c1C(=O)N1C[C@H]2CN(CCC3(c4ccccc4)CCN(C(=O)C(C)(C)C)C3)C[C@H]2C1` (stereo partly drawn) [4,6-dimethyl-5-((3aR,6aS)-5-(2-(3-phenyl-1-pivaloylpyrrolidin-3-yl)ethyl)octahydropyrrolo[3,4-c]pyrrole-2-carbonyl)picolinonitrile], the pIC50 was 6.44.

Take `Cc1cc(C#N)nc(C)c1C(=O)N1C[C@H]2CN(CCC3(c4ccccc4)CN(C(=O)C4CC(F)(F)C4)C3)C[C@H]2C1` [5-((3aR,6aS)-5-(2-(1-(3,3-difluorocyclobutanecarbonyl)-3-phenylazetidin-3-yl)ethyl)octahydropyrrolo[3,4-c]pyrrole-2-carbonyl)-4,6-dimethylpicolinonitrile]: the negative logarithm of the IC50 (pIC50) was 9.00. As for `Cc1cc(C#N)nc(C)c1C(=O)N1C[C@H]2CN(CCC3(c4ccccc4)CCN(C(=O)C4CCCC4)C3)C[C@H]2C1` (stereo partly drawn) [5-((3aR,6aS)-5-(2-(1-(cyclopentanecarbonyl)-3-phenylpyrrolidin-3-yl)ethyl)octahydropyrrolo[3,4-c]pyrrole-2-carbonyl)-4,6-dimethylpicolinonitrile], the figure is 7.07. As for `Cc1cc(C#N)nc(C)c1C(=O)N1C[C@H]2CN(CCC3(c4cccc(F)c4)CCN(C(=O)C(C)(C)C)CC3)C[C@H]2C1` [5-((3aR,6aS)-5-(2-(4-(3-fluorophenyl)-1-pivaloylpiperidin-4-yl)ethyl)octahydropyrrolo[3,4-c]pyrrole-2-carbonyl)-4,6-dimethylpicolinonitrile], the figure is 7.43; as for `Cc1nc(C(F)(F)F)nc(C)c1C(=O)N1C[C@H]2CN(CCC3(c4ccccc4)CN(C(=O)C4CCOC4)C3)C[C@H]2C1` (stereo partly drawn) [(4,6-dimethyl-2-(trifluoromethyl)pyrimidin-5-yl)((3aR,6aS)-5-(2-(3-phenyl-1-(tetrahydrofuran-3-carbonyl)azetidin-3-yl)ethyl)hexahydropyrrolo[3,4-c]pyrrol-2(1H)-yl)methanone], 7.04; as for `Cc1ncnc(C)c1C(=O)N1C[C@H]2CN(CCC3(c4ccccc4)CN(C(=O)C4CCOC4)C3)C[C@H]2C1` (stereo partly drawn) [(4,6-dimethylpyrimidin-5-yl)((3aR,6aS)-5-(2-(3-phenyl-1-(tetrahydrofuran-3-carbonyl)azetidin-3-yl)ethyl)hexahydropyrrolo[3,4-c]pyrrol-2(1H)-yl)methanone], 6.25. With `Cc1cc(C(F)(F)F)nc(C)c1C(=O)N1C[C@H]2CN(CCC3(c4ccccc4)CN(C(=O)C4CC(F)(F)C4)C3)C[C@H]2C1` [((3aR,6aS)-5-(2-(1-(3,3-difluorocyclobutanecarbonyl)-3-phenylazetidin-3-yl)ethyl)hexahydropyrrolo[3,4-c]pyrrol-2(1H)-yl)(2,4-dimethyl-6-(trifluoromethyl)pyridin-3-yl)methanone], the negative logarithm of the IC50 (pIC50) was 8.52. Take `Cc1nc(C(F)(F)F)nc(C)c1C(=O)N1C[C@H]2CN(CCC3(c4ccccc4)CN(C(=O)C4CC(F)(F)C4)C3)C[C@H]2C1` [((3aR,6aS)-5-(2-(1-(3,3-difluorocyclobutanecarbonyl)-3-phenylazetidin-3-yl)ethyl)hexahydropyrrolo[3,4-c]pyrrol-2(1H)-yl)(4,6-dimethyl-2-(trifluoromethyl)pyrimidin-5-yl)methanone]: the negative-log IC50 (pIC50) was 6.77.

Turning to `Cc1ncnc(C)c1C(=O)N1C[C@H]2CN(CCC3(c4ccccc4)CN(C(=O)C4CC(F)(F)C4)C3)C[C@H]2C1` [((3aR,6aS)-5-(2-(1-(3,3-difluorocyclobutanecarbonyl)-3-phenylazetidin-3-yl)ethyl)hexahydropyrrolo[3,4-c]pyrrol-2(1H)-yl)(4,6-dimethylpyrimidin-5-yl)methanone], the negative-log IC50 (pIC50) is 7.03. As for `Cc1cc(C(F)(F)F)nc(C)c1C(=O)N1C[C@H]2CN(CCC3(c4ccccc4)CN(C(=O)C4CCC(F)(F)CC4)C3)C[C@H]2C1` [((3aR,6aS)-5-(2-(1-(4,4-difluorocyclohexanecarbonyl)-3-phenylazetidin-3-yl)ethyl)hexahydropyrrolo[3,4-c]pyrrol-2(1H)-yl)(2,4-dimethyl-6-(trifluoromethyl)pyridin-3-yl)methanone], the figure is 8.70; as for `Cc1ccnc(C)c1C(=O)N1C[C@H]2CN(CCC3(c4ccccc4)CN(C(=O)C4CCC(F)(F)CC4)C3)C[C@H]2C1` [((3aR,6aS)-5-(2-(1-(4,4-difluorocyclohexanecarbonyl)-3-phenylazetidin-3-yl)ethyl)hexahydropyrrolo[3,4-c]pyrrol-2(1H)-yl)(2,4-dimethylpyridin-3-yl)methanone], 7.82. As to `Cc1nc(C(F)(F)F)nc(C)c1C(=O)N1C[C@H]2CN(CCC3(c4ccccc4)CN(C(=O)C4CCC(F)(F)CC4)C3)C[C@H]2C1` [((3aR,6aS)-5-(2-(1-(4,4-difluorocyclohexanecarbonyl)-3-phenylazetidin-3-yl)ethyl)hexahydropyrrolo[3,4-c]pyrrol-2(1H)-yl)(4,6-dimethyl-2-(trifluoromethyl)pyrimidin-5-yl)methanone], the pIC50 is 8.30.

As for `Cc1ncnc(C)c1C(=O)N1C[C@H]2CN(CCC3(c4ccccc4)CN(C(=O)C4CCC(F)(F)CC4)C3)C[C@H]2C1` [((3aR,6aS)-5-(2-(1-(4,4-difluorocyclohexanecarbonyl)-3-phenylazetidin-3-yl)ethyl)hexahydropyrrolo[3,4-c]pyrrol-2(1H)-yl)(4,6-dimethylpyrimidin-5-yl)methanone], the negative logarithm of the IC50 (pIC50) was 8.00. Turning to `Cc1ncnc(C)c1C(=O)N1C[C@H]2CN(CCC3(c4ccccc4)CN(S(=O)(=O)C4CCCC4)C3)C[C@H]2C1` [((3aR,6aS)-5-(2-(1-(cyclopentylsulfonyl)-3-phenylazetidin-3-yl)ethyl)hexahydropyrrolo[3,4-c]pyrrol-2(1H)-yl)(4,6-dimethylpyrimidin-5-yl)methanone], the negative-log IC50 (pIC50) is 6.34.
